How the values were obtained:
Assay type in all cases: in vivo
[1] = test system: soybean (GLXMA, var. Sultana); experiment: Pre-emergence crop plant compatibility (Table E1); conditions: dosage 80 g/ha, scored after about 3 weeks, 0% = like control plants
Excerpt: (§1) Seeds of monocotyledonous and dicotyledonous crop plants were placed in plastic or organic plant pots and covered with soil. The compounds of the invention, formulated in the form of wettable powders (WP) or as emulsion concentrates (EC), were then applied to the surface of the covering soil as aqueous suspension or emulsion with addition of 0.5% additive at a water application rate equivalent to 600 l/ha (converted). After the treatment, the pots were placed in a greenhouse and kept under good growth conditions for the test plants. After about 3 weeks, the effect of the preparations was scored visually in comparison with untreated controls as percentages. For example, 100% activity=the plants have died, 0% activity=like control plants.

[2] = test system: corn (ZEAMX, var. Aventura); experiment: Pre-emergence crop plant compatibility (Table E1); conditions: dosage 80 g/ha, scored after about 3 weeks, 0% = like control plants
Excerpt: as §1

[3] = test system: wheat (TRZAS, var. Triso); experiment: Pre-emergence crop plant compatibility (Table E1); conditions: dosage 80 g/ha, scored after about 3 weeks, 0% = like control plants
Excerpt: as §1

[4] = test system: Matricaria inodora (MATIN); experiment: Herbicidal pre-emergence action, test D, single sowings (Table D6); conditions: dosage 80 g/ha, scored after about 3 weeks
Excerpt: (§2) Seeds of monocotyledonous and dicotyledonous weed plants were laid out in plastic or organic plant pots (single sowings with one species of mono- or dicotyledonous weed plant per pot) and covered with soil. The compounds of the invention, formulated in the form of wettable powders (WP) or as emulsion concentrates (EC), were then applied to the surface of the covering soil as aqueous suspension or emulsion with addition of 0.5% additive at a water application rate equivalent to 600 l/ha (converted). After the treatment, the pots were placed in a greenhouse and kept under good growth conditions for the test plants. After about 3 weeks, the effect of the preparations was scored visually in comparison with untreated controls as percentages. For example, 100% activity=the plants have died, 0% activity=like control plants. Tables D1 to D8 below show the effects of selected compounds of the general formula (I) according to Table 1 on various harmful plants and an application rate corresponding to 80 g/ha, which were obtained by the experimental procedure mentioned above.

[5] = test system: Amaranthus retroflexus (AMARE); experiment: Herbicidal pre-emergence action, test D, single sowings (Table D5); conditions: dosage 80 g/ha, scored after about 3 weeks
Excerpt: as §2

viola tricolor (VIOTR) = experiment: Herbicidal pre-emergence action, test D, single sowings (Table D7); conditions: dosage 80 g/ha, scored after about 3 weeks
Excerpt: as §2

Setaria viridis (SETVI) = experiment: Herbicidal pre-emergence action, test D, single sowings (Table D3); conditions: dosage 80 g/ha, scored after about 3 weeks
Excerpt: as §2

[6] = test system: Abutilon theophrasti (ABUTH); experiment: Herbicidal pre-emergence action, test D, single sowings (Table D4); conditions: dosage 80 g/ha, scored after about 3 weeks
Excerpt: as §2

[7] = test system: harmful plants ALOMY, DIGSA, SETVI, ABUTH, AMARE, MATIN, VIOTR and VERPE; experiment: Herbicidal pre-emergence action (test D), summary of Tables D1-D8; conditions: application rate of 80 g of active ingredient per hectare; summary in words
Excerpt: Seeds of monocotyledonous and dicotyledonous weed plants were laid out in plastic or organic plant pots (single sowings with one species of mono- or dicotyledonous weed plant per pot) and covered with soil. The compounds of the invention, formulated in the form of wettable powders (WP) or as emulsion concentrates (EC), were then applied to the surface of the covering soil as aqueous suspension or emulsion with addition of 0.5% additive at a water application rate equivalent to 600 l/ha (converted). After the treatment, the pots were placed in a greenhouse and kept under good growth conditions for the test plants. After about 3 weeks, the effect of the preparations was scored visually in comparison with untreated controls as percentages. For example, 100% activity=the plants have died, 0% activity=like control plants.
Tables D1 to D8 below show the effects of selected compounds of the general formula (I) according to Table 1 on various harmful plants and an application rate corresponding to 80 g/ha, which were obtained by the experimental procedure mentioned above.

[8] = test system: soybean (GLXMA, var. Sultana), wheat (TRZAS, var. Triso) and corn (ZEAMX, var. Aventura); experiment: Pre-emergence crop plant compatibility, summary of Table E1; conditions: applied pre-emergence to soybean, wheat and corn at 80 g of active ingredient per hectare; summary in words
Excerpt: as §1

[9] = test system: Alopecurus myosuroides (ALOMY); experiment: Herbicidal pre-emergence action, test C (Table C9); conditions: visual scoring after about 3 weeks, 100% = plants have died, 0% = like control plants
Procedure, shortened: (§3)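 In this test, soil-covered weed seeds in sandy loam received a surface application of compound at 1280 or 320 g/ha. Effects were rated visually as percentages compared with untreated controls roughly 3 weeks later.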

[10] = test system: Digitaria sanguinalis (DIGSA); experiment: Herbicidal post-emergence action (Table B10); conditions: visual rating about 3 weeks after treatment, 100% = plants have died, 0% = like control plants
Procedure, shortened: (§4)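 Visual percent activity relative to untreated controls (100% = plants dead, 0% = like controls) was scored about 3 weeks after treatment. Plants had been sprayed at the one-leaf stage with formulated compound at 1280 or 320 g/ha in 600 L/ha water containing 0.5% additive.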

[11] = test system: Digitaria sanguinalis (DIGSA); experiment: Herbicidal pre-emergence action, test C (Table C10); conditions: visual scoring after about 3 weeks, 100% = plants have died, 0% = like control plants
Procedure, shortened: as §3

Veronica persica (VERPE) = experiment: Herbicidal post-emergence action (Table B12); conditions: visual rating about 3 weeks after treatment, 100% = plants have died, 0% = like control plants
Procedure, shortened: as §4

Bassia scoparia (KCHSC) = experiment: Herbicidal pre-emergence action, test C (Table C11); conditions: visual scoring vs untreated controls
Procedure, shortened: as §3

SMILES | Crop plant compatibility in pre-emergence, GLXMA (damage to soybean) [1] [%] | Crop plant compatibility in pre-emergence, ZEAMX (damage to corn) [2] [%] | Crop plant compatibility in pre-emergence, TRZAS (damage to wheat) [3] [%] | Pre-emergence action against Matricaria inodora (MATIN) [4] [%] | Pre-emergence action against Amaranthus retroflexus (AMARE) [5] [%] | Pre-emergence action against viola tricolor (VIOTR) (viola tricolor (VIOTR)) [%] | Pre-emergence action against Setaria viridis (SETVI) (Setaria viridis (SETVI)) [%] | Pre-emergence action against Abutilon theophrasti (ABUTH) [6] [%] | herbicidal activity against the harmful plants of Tables D1-D8 in pre-emergence treatment [7] | crop plant tolerance in comparison with structurally similar pyrimidinyloxybenzenes (US 2016/333000 Ex. Nos. 53 and 144) [8] | Pre-emergence action against Alopecurus myosuroides (ALOMY) ([9]; dosage 1280 g/ha) [%] | Post-emergence action against Digitaria sanguinalis (DIGSA) ([10]; dosage 320 g/ha) [%] | Post-emergence action against Digitaria sanguinalis (DIGSA) ([10]; dosage 1280 g/ha) [%] | Pre-emergence action against Digitaria sanguinalis (DIGSA) ([11]; dosage 1280 g/ha) [%] | Post-emergence action against Veronica persica (VERPE) (Veronica persica (VERPE); dosage 320 g/ha) [%] | Post-emergence action against Veronica persica (VERPE) (Veronica persica (VERPE); dosage 1280 g/ha) [%] | Pre-emergence action against Bassia scoparia (KCHSC) (Bassia scoparia (KCHSC); dosage 1280 g/ha) [%] | Pre-emergence action against Alopecurus myosuroides (ALOMY) ([9]; dosage 320 g/ha) [%] | Pre-emergence action against Digitaria sanguinalis (DIGSA) ([11]; dosage 320 g/ha) [%] | Pre-emergence action against Bassia scoparia (KCHSC) (Bassia scoparia (KCHSC); dosage 320 g/ha) [%]
Fc1cccc(Oc2ccc(Cl)cn2)c1-c1cc(C(F)F)no1 [Example 1-17] | 20 | 0 | 20 | 100 | 100 | 100 | 100 | 100 | very good herbicidal activity | significantly improved crop plant tolerance | – | – | – | – | – | – | – | – | – | –
FC(F)c1cc(-c2ccccc2Oc2ccc(Cl)cn2)on1 [Example 1-35] | 20 | 10 | 0 | 80 | 100 | 90 | 100 | 80 | very good herbicidal activity | significantly improved crop plant tolerance | 90 | 90 | 100 | 100 | 100 | 100 | 90 | – | – | –
Fc1cccc(Oc2ccc(Br)cn2)c1-c1cc(C(F)F)no1 [Example 1-40] | – | – | – | – | – | – | – | – | – | – | 100 | 100 | 100 | 100 | 100 | 100 | 100 | 100 | 100 | 100
Fc1cc(Cl)cnc1Oc1ccccc1-c1cc(C(F)F)no1 [Example 1-36] | 10 | 20 | 0 | 100 | 100 | 100 | 80 | 100 | very good herbicidal activity | significantly improved crop plant tolerance | 100 | 100 | 100 | 100 | 100 | 100 | 90 | 90 | 100 | –
Cc1cccc(Oc2ncc(Cl)cc2F)c1-c1cc(C(F)F)no1 [Example 1-20] | – | – | – | – | – | – | – | – | – | – | 100 | 100 | 100 | 100 | 100 | 100 | 90 | 90 | 90 | –
Cc1cccc(Oc2ccc(Cl)cn2)c1-c1cc(C(F)F)no1 [Example 1-18, 5-[2-[(5-Chloro-2-pyridyl)oxy]-6-methylphenyl]-3-(difluoromethyl)isoxazole] | – | – | – | – | – | – | – | – | – | – | 90 | 100 | 100 | 100 | 100 | 100 | 90 | – | 100 | –
Fc1cc(Cl)cnc1Oc1cccc(F)c1-c1cc(C(F)F)no1 [Example 1-19] | 20 | 10 | 30 | 100 | 100 | 100 | 100 | 100 | very good herbicidal activity | significantly improved crop plant tolerance | – | – | – | – | – | – | – | – | – | –

Source: US12052991B2, “Substituted pyridinyloxybenzenes and salts thereof and use thereof as herbicidal agents” (Bayer Aktiengesellschaft, priority 2018, dated 2024)
